Reference: ChEMBL document CHEMBL1201862, “PubChem BioAssay data set” (2004)
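A five-concentration, 48-hour dose response in 96-well plates underlies each endpoint, interpolated linearly between surrounding concentrations. At the GI50, growth is halved.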 Calls of active or inactive are those of the source. Cut-off read from the data, not from the text of the source: active = GI50 up to about 1.1 µM and inactive = higher.

Assays:
Test in all cases: NCI anticancer screen, dose series, 48 h
A498 = tested on: A498
OVCAR-5 = tested on: OVCAR-5
COLO 205 = tested on: COLO 205
HCT-15 = tested on: HCT-15
HCC 2998 = tested on: HCC 2998
Malme-3M = tested on: Malme-3M
TK-10 = tested on: TK-10
OVCAR-3 = tested on: OVCAR-3
LOX IMVI = tested on: LOX IMVI
SF-268 = tested on: SF-268
A549 = tested on: A549
U-251 = tested on: U-251
SNB-75 = tested on: SNB-75
RXF 393 = tested on: RXF 393
UACC-257 = tested on: UACC-257
HT-29 = tested on: HT-29
SR = tested on: SR

SMILES | GI50 (A498) | GI50 (OVCAR-5) | GI50 (COLO 205) | GI50 (HCT-15) [µM] | GI50 (HCC 2998) | GI50 (Malme-3M) | GI50 (TK-10) | GI50 (OVCAR-3) | GI50 (LOX IMVI) | GI50 (SF-268) | GI50 (A549) | GI50 (U-251) | GI50 (SNB-75) | GI50 (RXF 393) | GI50 (UACC-257) | GI50 (HT-29) | GI50 (SR)
O=C1C2Cc3ccccc3CN2C(=O)N1CCN1CCCC1 (stereo not given) | > 100 µM (inactive) | > 100 µM (inactive) | > 100 µM (inactive) | > 100 | > 100 µM (inactive) | > 100 µM (inactive) | > 100 µM (inactive) | > 100 µM (inactive) | > 100 µM (inactive) | > 100 µM (inactive) | > 100 µM (inactive) | > 100 µM (inactive) |  |  |  |  | 
COc1cc(/C=C/C(=N\NC(=O)c2ccccc2)c2sc(Nc3ccc(Cl)c(Cl)c3)nc2C)ccc1O |  | 25.6 µM (inactive) | 34 µM (inactive) | 31.9 | 28.8 µM (inactive) | 29.4 µM (inactive) | 37.5 µM (inactive) | 30.3 µM (inactive) | 19.7 µM (inactive) | 38.6 µM (inactive) | 31.7 µM (inactive) | 31.9 µM (inactive) | 33.3 µM (inactive) | 39.7 µM (inactive) | 29.6 µM (inactive) | 28.9 µM (inactive) | 22.3 µM (inactive)
C=CCCC(O)c1cc(C)c(O)c(C)c1 (stereo not given) | > 100 µM (inactive) | > 100 µM (inactive) | > 100 µM (inactive) | > 100 | > 100 µM (inactive) | > 100 µM (inactive) | > 100 µM (inactive) | > 100 µM (inactive) | > 100 µM (inactive) | > 100 µM (inactive) | > 100 µM (inactive) | > 100 µM (inactive) | 60.1 µM (inactive) | 53.3 µM (inactive) | > 100 µM (inactive) |  | 
CC1(C)NC(=O)N(CCCCCCN2C(=O)NC(C)(C)C2=O)C1=O | > 100 µM (inactive) | > 100 µM (inactive) | > 100 µM (inactive) | > 100 | > 100 µM (inactive) | > 100 µM (inactive) | > 100 µM (inactive) |  | > 100 µM (inactive) | > 100 µM (inactive) | > 100 µM (inactive) | > 100 µM (inactive) | > 100 µM (inactive) | > 100 µM (inactive) | > 100 µM (inactive) | > 100 µM (inactive) | 
O=C1CCC(O)=C1O | > 100 µM (inactive) | > 100 µM (inactive) | > 100 µM (inactive) | > 100 | > 100 µM (inactive) | > 100 µM (inactive) | > 100 µM (inactive) | > 100 µM (inactive) | > 100 µM (inactive) | > 100 µM (inactive) | > 100 µM (inactive) | > 100 µM (inactive) | > 100 µM (inactive) | > 100 µM (inactive) |  | > 100 µM (inactive) | 
Cc1nnc(N/N=C(/C(=O)C(C#N)c2ccc(Cl)cc2)C(C#N)c2ccc(Cl)cc2)n1N (stereo not given) |  | 18.5 µM (inactive) | 17.7 µM (inactive) | 19.7 | 19.4 µM (inactive) | 19.4 µM (inactive) | 20 µM (inactive) | 21.5 µM (inactive) | 18.6 µM (inactive) | 24.1 µM (inactive) | 20.1 µM (inactive) |  | 16.4 µM (inactive) | 17.7 µM (inactive) | 17.4 µM (inactive) | 20.4 µM (inactive) | 
CSc1nc(C)cc(=O)n1C1OC(COC(C)=O)C(OC(C)=O)C(OC(C)=O)C1OC(C)=O (stereo not given) | > 100 µM (inactive) | > 100 µM (inactive) | > 100 µM (inactive) | > 100 | > 100 µM (inactive) | > 100 µM (inactive) | > 100 µM (inactive) | > 100 µM (inactive) | > 100 µM (inactive) | > 100 µM (inactive) | > 100 µM (inactive) | > 100 µM (inactive) | 61.5 µM (inactive) |  | > 100 µM (inactive) | > 100 µM (inactive) | > 100 µM (inactive)
CN1/C(=N\c2ccccc2)S/C1=N/c1ccccc1 | 96.4 µM (inactive) | > 100 µM (inactive) | 61 µM (inactive) | 90.8 | 66.8 µM (inactive) | 23.1 µM (inactive) | > 100 µM (inactive) | 34.1 µM (inactive) | 74.6 µM (inactive) | > 100 µM (inactive) | 86.1 µM (inactive) | > 100 µM (inactive) | 6.62 µM (inactive) |  | > 100 µM (inactive) | 55.5 µM (inactive) | 95.7 µM (inactive)
COc1ccc(/C=C/CO)cc1OC |  | > 100 µM (inactive) | > 100 µM (inactive) | > 100 | > 100 µM (inactive) | > 100 µM (inactive) | > 100 µM (inactive) | > 100 µM (inactive) |  | > 100 µM (inactive) | > 100 µM (inactive) | > 100 µM (inactive) | > 100 µM (inactive) | > 100 µM (inactive) | > 100 µM (inactive) | > 100 µM (inactive) | > 100 µM (inactive)
O=C(CO)CC(=O)C(=O)Nc1ccccc1 |  | > 100 µM (inactive) | > 100 µM (inactive) | > 100 | > 100 µM (inactive) | > 100 µM (inactive) | > 100 µM (inactive) | > 100 µM (inactive) | > 100 µM (inactive) | > 100 µM (inactive) | > 100 µM (inactive) | > 100 µM (inactive) |  | > 100 µM (inactive) | > 100 µM (inactive) | > 100 µM (inactive) | > 100 µM (inactive)
CCCCCCCCCCCCCCCC(=O)OCC1OC(n2cc(F)c(=O)[nH]c2=O)C(NC(=O)OCc2ccccc2)C(O)C1O (stereo not given) | 18.8 µM (inactive) | 19.1 µM (inactive) | 17.4 µM (inactive) | 18.5 | 16.3 µM (inactive) | 2.79 µM (inactive) | 19.6 µM (inactive) | 16.1 µM (inactive) | 17.1 µM (inactive) | 23.4 µM (inactive) | 18.9 µM (inactive) | 15.9 µM (inactive) | 19.8 µM (inactive) |  |  | 17.8 µM (inactive) | 
C=C1C2C[C@@H]3OC4CC5O[C@]6(CC5OC4C(C)C3OC(=O)CC3CC[C@@H]4OC5C7OC8C[C@](CCC9CC(=C)[C@H](CCC(C[C@H]1C)O2)O9)(OC7C4O3)O[C@@H]85)C[C@@H]1O[C@@]2(CC(C)[C@@H]3OC(CC(=O)CCO)C(O)C[C@@H]3O2)CC(C)[C@@H]1O6 (stereo not given in full) |  | < 0.001 µM (active) | < 0.001 µM (active) | < 0.001 | < 0.001 µM (active) | < 0.001 µM (active) |  | < 0.001 µM (active) | < 0.001 µM (active) | < 0.001 µM (active) | < 0.001 µM (active) | < 0.001 µM (active) |  |  | < 0.001 µM (active) |  | < 0.001 µM (active)
COc1ccc(C[P+]2(c3ccccc3)CCCCC2)cc1.O=[N+]([O-])c1ccc(C[P+]2(c3ccccc3)CCCCC2)cc1.[O-][Cl+3]([O-])([O-])[O-].[O-][Cl+3]([O-])([O-])[O-] | > 100 µM (inactive) | > 100 µM (inactive) | 52.5 µM (inactive) | > 100 | > 100 µM (inactive) | 19.3 µM (inactive) | > 100 µM (inactive) | 41 µM (inactive) | 67.5 µM (inactive) | > 100 µM (inactive) | > 100 µM (inactive) | > 100 µM (inactive) | > 100 µM (inactive) | 95.9 µM (inactive) | 29.6 µM (inactive) | 10 µM (inactive) | 
O=C(CCC(=O)Nc1ccc(Cl)c(Cl)c1)CC(=O)c1ccc(F)cc1 |  | > 100 µM (inactive) | > 100 µM (inactive) |  | > 100 µM (inactive) | > 100 µM (inactive) |  | > 100 µM (inactive) | > 100 µM (inactive) | > 100 µM (inactive) | > 100 µM (inactive) | > 100 µM (inactive) |  | > 100 µM (inactive) | > 100 µM (inactive) | > 100 µM (inactive) | > 100 µM (inactive)
C[C@]12CC=CC(=O)[C@@]1(C)CCC(=O)C2 | > 100 µM (inactive) | > 100 µM (inactive) |  |  | > 100 µM (inactive) | > 100 µM (inactive) | > 100 µM (inactive) | > 100 µM (inactive) |  | > 100 µM (inactive) | > 100 µM (inactive) | > 100 µM (inactive) | > 100 µM (inactive) | > 100 µM (inactive) | > 100 µM (inactive) | > 100 µM (inactive) | > 100 µM (inactive)
O=c1/c(=C/c2ccc3c(c2)OCO3)sc2nnc(-c3ccco3)n12 | > 100 µM (inactive) | > 100 µM (inactive) | > 100 µM (inactive) |  | > 100 µM (inactive) | > 100 µM (inactive) | > 100 µM (inactive) | > 100 µM (inactive) | > 100 µM (inactive) | > 100 µM (inactive) | > 100 µM (inactive) | > 100 µM (inactive) | 28.2 µM (inactive) | > 100 µM (inactive) | 15.3 µM (inactive) |  | 
NCCOCCOCC(=O)O |  | > 100 µM (inactive) |  | > 100 | > 100 µM (inactive) | > 100 µM (inactive) | > 100 µM (inactive) | > 100 µM (inactive) |  | > 100 µM (inactive) | > 100 µM (inactive) | > 100 µM (inactive) | > 100 µM (inactive) | > 100 µM (inactive) | > 100 µM (inactive) | > 100 µM (inactive) | > 100 µM (inactive)
Brc1ccc(-c2nnc(-c3nn(-c4ccccc4)c4nc5ccccc5nc34)o2)cc1 |  | 68.9 µM (inactive) | > 100 µM (inactive) |  | > 100 µM (inactive) |  | > 100 µM (inactive) | 95.7 µM (inactive) | > 100 µM (inactive) | > 100 µM (inactive) | 96.4 µM (inactive) | > 100 µM (inactive) | > 100 µM (inactive) | > 100 µM (inactive) | 92 µM (inactive) | > 100 µM (inactive) | 27.8 µM (inactive)
